Literature values, collected in PMC11238383, “A review on the cultivation, bioactive compounds, health-promoting factors and clinical trials of medicinal mushrooms Taiwanofungus camphoratus, Inonotus obliquus and Tropicoporus linteus” (Fungal Biology and Biotechnology, 2024).
Converted amounts (≈) assume the structure as drawn.

How the values were obtained:
[1] = tested on: Chronic alcohol-induced liver disease in C57BL/6J (B6) mice; design: method as in Chang et al. [182]; settings: ref Chang et al. [182]
[2] = tested on: Severe acute respiratory syndrome coronavirus 2 (SARS-CoV-2) virus-infected HepG2 cells; design: method as in Li et al. [35], [38]; settings: ref Li et al. [35], [38]
[3] = tested on: Oleic and palmitic acids (O/P) lipid accumulation-induced HepG2 cells; design: method as in Chiu et al. [138]; settings: ref Chiu et al. [138]
3CL protease = tested on: 3CL protease; design: method as in Li et al. [35], [38]; settings: ref Li et al. [35], [38]
aldose reductase = tested on: aldose reductase; design: method as in Lee et al. [136]; settings: ref Lee et al. [136]
H1264 = tested on: H1264; design: method as in Baek et al. [203]; settings: ref Baek et al. [203]
Calu-6 = tested on: Calu-6; design: method as in Baek et al. [203]; settings: ref Baek et al. [203]
H1299 = tested on: H1299; design: method as in Baek et al. [203]; settings: ref Baek et al. [203]
[4] = tested on: High-fat diet-induced C57BL/6J mice; design: method as in Lin et al. [175]; settings: ref Lin et al. [175]
[5] = tested on: Streptozotocin-induced diabetic C57BL/6J mice; design: method as in Lin et al. [176]; settings: ref Lin et al. [176]
[6] = ref Lee et al. [226]
[7] = tested on: LPS-stimulated RAW264.7 cells; design: method as in Huang et al. [212], [243]; settings: ref Huang et al. [212], [243]
Influenza A H1N1 virus = tested on: Influenza A H1N1 virus; design: method as in Hwang et al. [13]; settings: 10 uM; ref Hwang et al. [13]
H1N1 neuraminidase = settings: ref [13]
[8] = tested on: Hepatitis C virus (HCV) protease; design: method as in My et al. [190]; settings: ref My et al. [190]
[9] = tested on: Streptozotocin-induced diabetic C57BL/6J mice; design: method as in Kuo et al. [177]; settings: in vivo; ref Kuo et al. [177]
C2C12 cells [10] = tested on: C2C12 cells; design: method as in Kuo et al. [177]; settings: in vitro; ref Kuo et al. [177]
[11] = tested on: Carbon tetrachloride (CCl4) liver damage induced-Sprague Dawley rats; design: method as in Parfenov et al. [216]; settings: I. obliquus; ref Parfenov et al. [216]
Chang liver cells = tested on: Chang liver cells; design: method as in Parfenov et al. [216]; settings: I. obliquus; 10^−5 and 10^−3 g/L; ref Parfenov et al. [216]
[12] = tested on: Obesity-induced Wistar rats; design: method as in Chen et al. [181]; settings: ref Chen et al. [181]
breast cancer cells = tested on: breast cancer cells; design: method as in PMID 25656647; settings: ref [71]
[13] = tested on: Oxidative stress-induced HepG2 cells; design: method as in Kumar et al. [180]; settings: pretreatment, after 24 h; ref Kumar et al. [180]
[14] = tested on: MCF7, MDA-MB-231, T24 and J82 cells; design: method as in Lu et al. [232]; settings: ref Lu et al. [232]
[15] = tested on: Ultraviolet B-irradiated BALB/cAnN.Cg-Foxn1nu/CrlNarl hairless mice; design: method as in Kuo et al. [184]; settings: topical 25 and 100 μM; ref Kuo et al. [184]
[16] = tested on: High-fat diet-induced C57BL/6J mice; design: method as in Kuo et al. [178]; settings: ref Kuo et al. [178]
C2C12 cells [17] = tested on: C2C12 cells; design: method as in Kuo et al. [174]; settings: ref Kuo et al. [174]
[18] = tested on: Streptozotocin-induced diabetic C57BL/6J mice; design: method as in Kuo et al. [178]; settings: ref Kuo et al. [178]
C57BL/6J mice = settings: 40 mg/kg/day versus Metformin 300 mg/kg/day; ref [174]

CC(C)[C@@H](C)/C=C/[C@@H](C)[C@H]1CC[C@H]2C3=CCC4C[C@@H](O)CC[C@]4(C)C3=CC[C@]12C (some centres unmarked) [Antrosterol]
hepatoprotective findings [1]: Reduction in serum/hepatic lipids, rise in output of fecal lipid/bile-acid output, amplified hepatic antioxidant activities, reduced serum alcohol level, decrease liver inflammation, fibrosis, serum AST/ALT and TNF-α/IL-1β

O=c1cc(O)cc([C@H]2c3c(cc(/C=C/c4ccc(O)c(O)c4)oc3=O)O[C@@H]2c2ccc(O)c(O)c2)o1 [Hypholomine B, hypholomine B]
ACE2 gene expression [2]: Reduced the expression of angiotensin-converting enzyme 2 (ACE2) gene | lipid accumulation [3]: Significant reduction in lipid accumulation | 3CL protease (3CL protease): Inhibition of 3CL protease | aldose reductase inhibition (aldose reductase): capable of inhibiting aldose reductase

CC(C)=CCC[C@@H](C=O)[C@H]1CC[C@@]2(C)C3=C(CC[C@]12C)[C@@]1(C)CC[C@H](O)C(C)(C)[C@@H]1CC3 [3β-hydroxylanosta-8,24-dien-21-al]
IC50 (H1264): 90.9 µg/mL (≈ 206 µM) | IC50 (Calu-6): 75.1 µg/mL (≈ 170 µM) | IC50 (H1299): 128.0 µg/mL (≈ 290 µM)

C=C(CC[C@@H](C(=O)O)[C@H]1C[C@H](O)[C@@]2(C)C3=C(CC[C@]12C)[C@@]1(C)CC[C@H](O)C(C)(C)[C@@H]1CC3)C(C)C [Sulphurenic acid]
PPAR-α expression in the liver [4]: Increased expression of PPAR-α in the liver which facilitated fatty acid oxidation and the reduction of lipid levels | insulin and HbA1c [5]: Rise of insulin levels and reduction in the concentration of glycated hemoglobin (HbA1c)

CC1=CC(=O)/C(=C/c2ccc(O)c(O)c2)O1 [Inotilone, inotilone]
antioxidant activity [6]: Potent antioxidant activity, with higher antioxidant activity than BHA and Trolox in FRAP assay | NO, iNOS, NF-κB, MMP-9 [7]: Inhibit NO production, iNOS, NF-κB, and MMP-9 expressions, and LPS-induced ERK, JNK, and p38 phosphorylation | visible cytopathic effects (Influenza A H1N1 virus): 10 uM of both inhibited the formation of visible cytopathic effects, with IC50 values lower than Oseltamivir | IC50 (H1N1 neuraminidase): 61 µM | neuraminidase activity (H1N1 neuraminidase): inhibit neuraminidase activity

CC(C)=CCOc1ccc(C2=C(CC(C)C)C(=O)OC2=O)cc1 [Antrodin A]
half-maximal inhibitory concentration (IC50) [8]: Antrodins A to E, except antrodin B, exhibited potent inhibitory effects against the HCV protease, with Antrodin A having the highest potency with a half-maximal inhibitory concentration (IC50) value of 0.9 µg/mL

C=C(CC[C@@H](C(=O)O)[C@H]1CC[C@@]2(C)C3=CC[C@H]4C(C)(C)[C@@H](O)CC[C@]4(C)C3=CC[C@]12C)C(C)C [Dehydroeburicoic acid]
decrease in blood glucose level [9]: 43.6–46.5% | GLUT4 expression (C2C12 cells [10]): Higher expression of GLUT4

Melanin
liver damage findings [11]: Decrease in fat buildup, steatosis, necrosis | increase in viability of liver cells intoxicated with d-galactosamine (Chang liver cells): 2–2.5 times

COC1=C(OC)[C@H](O)[C@H](C/C=C(\C)CC/C=C(\C)CCC=C(C)C)[C@@H](C)C1=O [Antroquinonol, antroquinonol]
hepatoprotective effect [12]: Exerts hepatoprotective effects by inhibiting hepatic lipid accumulation | migration and invasion (breast cancer cells): inhibit the migration and invasion of breast cancer cells | rise in ALT and AST caused by ethanol [13]: Antroquinonol pretreatment considerably and dose-dependently decreased the rise in ALT and AST caused by ethanol after 24 h in HepG2 cells

CC(=O)/C=C(O)/C=C/c1ccc(O)c(O)c1 [Hispolon, hispolon]
suppression of cancer cells [14]: Suppressed p53 mutant (MDA-MB-231, T24, and J82) and wild-type (MCF7) cells regardless of p53 status Apoptosis characterized by chromatin condensation and poly (ADP-ribose) polymerase (PARP) increase

CC(C)[C@@H](C)/C=C/[C@@H](C)[C@H]1CC[C@H]2C3=CCC4C[C@@H](O)CC[C@]4(C)C3=CC[C@]12C (stereo partly drawn) [Ergostatrien-3β-ol]
MMP-1, IL-6, iNOS, NF-κB in skin [15]: Significant inhibition of metalloproteinase-1 (MMP-1), IL-6, iNOS and NF-κB in skin | visceral adipocyte size, hepatic ballooning [16]: Reduced visceral adipocyte size and induced hepatic ballooning degeneration

C=C(CC[C@@H](C)[C@H]1CC[C@H]2C3=C(C(=O)C[C@]12C)[C@@]1(C)CC[C@@H](O)[C@](C)(O)[C@@H]1C[C@@H]3O)C(C)C(=O)O (some centres unmarked) [Antcin K]
GLUT4 and phospho-Akt expression (C2C12 cells [17]): Enhance membrane glucose transporter 4 (GLUT4) and phosphor-Akt expressions | FAS, CPT-1a, PPARα expression [18]: Fatty acid synthase (FAS) expression levels declined while hepatic expression levels of carnitine palmitoyl transferase 1a (CPT-1a) and peroxisome proliferator-activated receptor α (PPARα) rose | antihyperglycemic effect (C57BL/6J mice): comparable to Metformin
